# Laboratory results: ChEMBL document CHEMBL1143893, “Novel nitroheterocyclic hypoxic markers for solid tumor: synthesis and biological evaluation” (Bioorg Med Chem, 2008)
# Assay: Drug level in Chinese hamster V79 379A cells at 0.1 mM after 3.5 hrs by fluorescence microplate reader relative to control
# Type: ADME, cell-based, Cricetulus griseus
# Details: 100 µM
row,Compound,Fold change
1,O=[N+]([O-])c1ccc2nc3c(nc2c1)-c1cccc2c([N+](=O)[O-])ccc-3c12,6
2,CN(C)CCNc1ccc2c3c(cccc13)-c1nc3cc([N+](=O)[O-])ccc3nc1-2,11
3,CN1CCN(c2ccc3c4c(cccc24)-c2nc4cc([N+](=O)[O-])ccc4nc2-3)CC1,9
